# Measurements published in article PMC7997166, “In Silico Plasma Protein Binding Studies of Selected Group of Drugs Using TLC and HPLC Retention Data” (Pharmaceuticals, 2021).
# Tests used:
# human serum albumin = human serum albumin (Homo sapiens, UniProt P02768); test: HPLC on column with immobilized human serum albumin (CHIRALPAK HSA); assay type: binding; conditions: mobile phase acetate buffer pH 7.4:acetonitrile:methanol 85:10:5; flow 0.9 mL/min; 25 degrees Celsius; void time marker methanol t = 1.63
# Experimental: HPLC analysis was performed on a Perkin Elmer Series 200 apparatus with a UV-VIS spectrometer for detection with an analytical wavelength of 210 nm. The mobile phase consisted of an acetate buffer with pH 7.4:acetonitrile:methanol, 85:10:5 (v/v/v). All solvents used—water, methanol and acetonitrile—were purchased from J.T. Baker (HPLC gradient class). The acetate buffer (10 mM) was prepared by dissolving 0.77 g of ammonium acetate in 1 L of distilled water. The pH was then adjusted with a concentrated ammonia solution.
# API solutions in methanol (1 mg/mL, volume of injection: 10 μL) were injected into the HSA column using an automatic autosampler. The flow rate of the mobile phase was 0.9 mL/min. Since the column could not be thermostated, the room temperature was kept constant at 25 degrees Celsius by air conditioning. Chromatographic data (retention factor k and derivative: log k) were obtained for 129 APIs using the TotalChrom software connected to HPLC. Factor k, which is the ratio between the amount of analyte in the stationary phase to the amount in the mobile phase, was obtained from the equation k = (tR − tM)/tM where tR is retention time and tM is void time. The experiment was then repeated, and the collected retention factors (k) were means values from both series.
# bovine serum albumin = bovine serum albumin (Bos taurus, UniProt P02769); test: NP TLC on BSA-impregnated silica gel plates (retardation factor Rf); assay type: binding; conditions: silica gel 60 F254 impregnated with BSA, mobile phase acetonitrile:acetate buffer pH 7.4:methanol 60:20:20, λ = 240 nm
# [1] = NP TLC on control silica gel plates without protein modifier (Rf); assay type: physicochemical; conditions: silica gel 60 F254 without BSA (control), mobile phase acetonitrile:acetate buffer pH 7.4:methanol 60:20:20, λ = 240 nm
# Experimental: TLC was performed in normal and reversed phase (NP and RP) systems. Aluminum plates with silica gel (Merck, TLC Silica gel 60 F254) were used in the NP system and aluminum plates with silanized silica gel—RP (Merck, TLC Silica gel 60 RP-2 F254, silanized) were used in the RP system. The stationary phase surface modifying protein was bovine serum albumin. A 2-mg/mL solution of BSA (Sigma Aldrich, Bovine serum albumin lyophilised powder) in distilled water was applied on the surface using Desaga Sprayer SG 1 and air-dried.
# Drug solutions in methanol (1 mg/mL) were applied on the plates with the Desaga HPTLC-Applicator AS 30, then the plates were developed in the mobile phase composed of acetonitrile, acetate buffer pH 7.4 and methanol, 60:20:20 (v/v/v). All solvents used—water, methanol and acetonitrile—were purchased from J.T. Baker (HPLC Gradient Grade). The acetate buffer (20mM) was prepared by dissolving 1.54 g of ammonium acetate in 1 L of distilled water. The pH was then adjusted with concentrated ammonia solution.
# The mobility of the compounds was initially determined on NP and RP plates without the participation of the protein modifier. These were labeled as controls (C). The obtained retardation factor (Rf) values could be used to determine the composition of the mobile phase, as well as the specific effect of the protein modifier on the mobility of the APIs. […]
# Chain of bovine serum albumin (P02769 25-607): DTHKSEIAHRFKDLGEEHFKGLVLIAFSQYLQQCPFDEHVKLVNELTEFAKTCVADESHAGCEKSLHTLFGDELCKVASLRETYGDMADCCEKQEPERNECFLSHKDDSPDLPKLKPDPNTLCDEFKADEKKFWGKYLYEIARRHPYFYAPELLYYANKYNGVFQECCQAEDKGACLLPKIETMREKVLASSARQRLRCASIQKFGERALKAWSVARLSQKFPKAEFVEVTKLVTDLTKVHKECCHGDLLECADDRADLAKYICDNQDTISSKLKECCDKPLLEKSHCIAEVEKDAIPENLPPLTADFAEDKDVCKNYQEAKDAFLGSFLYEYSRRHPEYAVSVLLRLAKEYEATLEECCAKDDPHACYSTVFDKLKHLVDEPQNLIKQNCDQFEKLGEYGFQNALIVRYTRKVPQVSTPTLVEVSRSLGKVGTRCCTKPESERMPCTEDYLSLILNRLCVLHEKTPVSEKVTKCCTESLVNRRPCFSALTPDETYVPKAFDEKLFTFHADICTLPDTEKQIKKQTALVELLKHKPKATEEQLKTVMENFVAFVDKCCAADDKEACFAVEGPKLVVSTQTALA
# Chain of human serum albumin (P02768 25-609): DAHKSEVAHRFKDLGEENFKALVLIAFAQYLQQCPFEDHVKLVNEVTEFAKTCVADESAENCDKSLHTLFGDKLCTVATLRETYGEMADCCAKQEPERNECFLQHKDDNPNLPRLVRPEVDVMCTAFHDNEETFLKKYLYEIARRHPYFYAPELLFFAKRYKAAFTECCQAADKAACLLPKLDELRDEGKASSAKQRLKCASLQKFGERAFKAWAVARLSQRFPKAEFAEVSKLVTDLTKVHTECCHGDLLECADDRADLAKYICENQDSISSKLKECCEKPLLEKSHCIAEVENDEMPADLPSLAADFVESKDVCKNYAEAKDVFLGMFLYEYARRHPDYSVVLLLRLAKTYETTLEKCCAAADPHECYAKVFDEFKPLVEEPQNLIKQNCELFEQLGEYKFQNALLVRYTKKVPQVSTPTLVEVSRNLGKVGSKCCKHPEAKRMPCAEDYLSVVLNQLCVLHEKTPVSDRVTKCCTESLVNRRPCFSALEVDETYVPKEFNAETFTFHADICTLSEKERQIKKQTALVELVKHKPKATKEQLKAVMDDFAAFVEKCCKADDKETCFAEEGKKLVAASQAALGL
retention time (t) on HPLC column with immobilized HSA (human serum albumin),"Rf, BSA-impregnated NP plate (bovine serum albumin)","Rf, control NP plate [1]",Structure (SMILES)
3.71,–,–,CC(C)c1nc(N(C)S(C)(=O)=O)nc(-c2ccc(F)cc2)c1/C=C/[C@@H](O)C[C@@H](O)CC(=O)O [rosuvastatin]
–,0.31,0.34,CN(C)CCC=C1c2ccccc2COc2ccccc21 [doxepin]
